Biological target: T1, ABCG2 (Homo sapiens, UniProt Q9UNQ0)
T1 sequence (Q9UNQ0 1-655): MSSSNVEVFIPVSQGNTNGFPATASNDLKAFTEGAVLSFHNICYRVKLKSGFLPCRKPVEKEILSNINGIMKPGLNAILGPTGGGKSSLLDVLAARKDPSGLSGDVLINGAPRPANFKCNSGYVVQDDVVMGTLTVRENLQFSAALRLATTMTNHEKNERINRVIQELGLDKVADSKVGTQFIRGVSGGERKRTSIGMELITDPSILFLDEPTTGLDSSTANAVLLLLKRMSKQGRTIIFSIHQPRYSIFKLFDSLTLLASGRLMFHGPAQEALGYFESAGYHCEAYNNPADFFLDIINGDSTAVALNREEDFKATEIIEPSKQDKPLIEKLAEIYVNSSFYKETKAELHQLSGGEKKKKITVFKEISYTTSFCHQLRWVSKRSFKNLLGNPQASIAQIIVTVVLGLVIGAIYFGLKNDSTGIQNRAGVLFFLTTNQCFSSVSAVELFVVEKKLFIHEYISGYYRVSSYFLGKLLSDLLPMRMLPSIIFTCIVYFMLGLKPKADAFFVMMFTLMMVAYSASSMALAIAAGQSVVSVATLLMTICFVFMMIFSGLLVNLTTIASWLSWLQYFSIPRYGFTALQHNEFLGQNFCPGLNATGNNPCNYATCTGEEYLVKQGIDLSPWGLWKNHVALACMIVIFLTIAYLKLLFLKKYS
Assay: inhibition of [3H]methotrexate transport in Sf9 membrane vesicles
Assay type: biochemical

Nc1nc(Cl)nc2c1ncn2[C@@H]1O[C@H](CO)[C@@H](O)[C@@H]1F [clofarabine]
IC50: ~14 µM

— paper PMC3531552 (Cancer research, 2011)
